Results from patent US20240148425A1, “COSMETIC COMPOSITION INTENDED FOR THE TREATMENT OF SKIN HYPERPIGMENTATION AND TREATMENT METHOD USING SAID COMPOSITION” (priority 2021, published 2024).

How the values were obtained:
keratinocytes = assay: viability of keratinocytes by protein assay; format: cell-based; settings: certain temperatures, especially +05° C.; patent attributes it to quiescence bias
Source text: Other tests conducted within the scope of the development of the invention have shown that an experiment bias existed in the measurement of the viability of the keratinocytes by protein assay.

[1] = test system: IL-1β marker in keratinocytes; assay: IL-1β irritation marker in keratinocytes after cryogenic gas sequences; format: cell-based; settings: +14° C. with 4 successive oscillations vs subzero dose (EC16, −16° C.), same level of keratinocyte viability
Source text: Finally, on the other constituent cells of the epidermis (keratinocytes), experiments have shown that oscillations within an above-zero temperature range caused a lesser effect on certain irritation markers compared to the application of a single cryogenic gas within a subzero temperature range while causing an identical reduction in the viability of the keratinocytes (see FIG. 3). […] Likewise, since the irritation is directly related to the mortality induced by keratinocytes, it could have been thought that for an identical reduction in viability, the irritation would be identical.
FIG. 3 is a graph showing the variation over time of the (IL-1β) marker of the irritation for keratinocytes subjected to two sequences making it possible to achieve the same level of viability, a sequence (EC16) located in a subzero temperature range (−16° C.) and the other sequence (EC14) in an above-zero temperature range (+14° C.).
The development of the invention has given rise to numerous experiments relating to the optimization of atomization sequences. These sequences were tested on cell culture models in order to determine, in particular, their incidence on the cell viability of the melanocytes and keratinocytes. The main markers of irritation were also measured.

[2] = test system: actinic lentigines on the back of hands; settings: cooling cycle of 3 to 5 seconds; biopsies 3 weeks after the treatment; cited from earlier work
skin pigmentation = settings: brief 5-second cooling by atomizing liquid nitrogen at −196° C., margin 1 to 5 mm beyond the wound; cited from earlier work

Procedure for melanocytes: By way of example, when the viability of the melanocytes is compared between the application of a dose of atomized cryogenic gas making it possible to reach a target temperature of −10° C. (sequence referenced EC-10) on the epidermis from its normal starting temperature (34° C.) in an environment at room temperature (23° C.), and the application of a dose making it possible to reach a temperature of 0° C.
Therefore, experiments (cell cultures-in vitro) were conducted in the context of the invention to determine the effects of different temperatures (+10, +5, 0, −5, −10, −15 and 16° C.) on the mortality of the melanocytes. […] A control group of cells was tested at +23° C. After 24 h of treatment, the cell mortality was quantified by assaying the expression of the proteins (see FIG. 1).

CC(F)F [cryogenic gas, 1,1-difluoroethane]
viability of the keratinocytes by protein assay (keratinocytes): a reduction in the viability of the keratinocytes
decrease of viability of the melanocytes relative to the control group (melanocytes): 40%
reduction of the viability of the melanocytes (melanocytes): about 40%
mortality rate of melanocytes versus control group (melanocytes; EC+10 sequence (+10° C.), control at +23° C.): very different from that obtained for the control group
viability of the melanocytes, sequence EC-10 (−10° C.) compared with EC00 (0° C.) (melanocytes; EC-10 vs EC00, start 34° C., room temperature 23° C.): remains the same
irritant effect (IL-1β marker) [1]: less than that observed with a dose making it possible to achieve subzero temperatures

N#N [liquid nitrogen]
skin pigmentation in biopsies [2]: reduces skin pigmentation
pigment change of skin (skin pigmentation): hypopigmentation persists
